We go through eleven compounds from patent US20240409585A1, “MACROCYCLIC IMMUNOMODULATORS” (priority 2021, published 2024).

Molecules are shown by their SMILES. Bridge positions count the residues as written; N and C are the ends. Square brackets hold non-standard residues; d marks the D form. Peptide text beside a SMILES is read from it. * marks the point of attachment. ξ: configuration not given here. Gly(1-amidinopiperidin-4-yl) = N=C(N)N1CCC([C@H](N)C(=O)O)CC1; Tyr(3-NO2) = N[C@@H](Cc1ccc(O)c([N+](=O)[O-])c1)C(=O)O; dPhe(4-NO2) = N[C@H](Cc1ccc([N+](=O)[O-])cc1)C(=O)O; Bip = N[C@@H](Cc1ccc(-c2ccccc2)cc1)C(=O)O; d1Nal = N[C@H](Cc1cccc2ccccc12)C(=O)O; 4Pal = N[C@@H](Cc1ccncc1)C(=O)O; Cha = N[C@@H](CC1CCCCC1)C(=O)O; Cit = NC(=O)NCCC[C@H](N)C(=O)O; Ile(3ξ) = CCC(C)[C@H](N)C(=O)O; Thr(3ξ) = CC(O)[C@H](N)C(=O)O; ξCha = NC(CC1CCCCC1)C(=O)O; hSer = N[C@@H](CCO)C(=O)O; Carboxymethyl = O=C(O)C*; NMeA = CN[C@@H](C)C(=O)O; Nle = CCCC[C@H](N)C(=O)O; Orn = NCCC[C@H](N)C(=O)O; Dab = NCC[C@H](N)C(=O)O; Dap = NC[C@H](N)C(=O)O

T1 sequence (Q15116 25-288): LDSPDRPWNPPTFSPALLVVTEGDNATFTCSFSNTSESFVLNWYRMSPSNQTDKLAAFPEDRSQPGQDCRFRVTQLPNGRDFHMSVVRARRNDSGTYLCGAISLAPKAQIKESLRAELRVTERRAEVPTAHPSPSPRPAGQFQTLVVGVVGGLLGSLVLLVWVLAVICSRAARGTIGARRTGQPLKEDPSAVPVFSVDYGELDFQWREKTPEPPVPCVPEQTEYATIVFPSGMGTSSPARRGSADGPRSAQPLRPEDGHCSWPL

The first experiment concerns the target T1, PE-labeled human PD-L1-Ig binding to Jurkat cell line over-expressing human PD-1 (Jurkat-PD-1) (Homo sapiens, UniProt Q15116).
T1 construct: expressed in transfected cells; host or cells: Jurkat
Put plainly: Jurkat-PD-1 Cell Binding High-Content Screening Assay (CBA): Method 1. The note with it: Jurkat-PD-1 cells, PE-labeled PD-L1-Ig; μM; read-out: CBA Method 1 μM.
For the compound `CCC(C)[C@@H]1NC(=O)[C@H](Cc2ccc(-c3ccccc3)cc2)NC(=O)[C@H](C(C)C)NC(=O)[C@H](Cc2c[nH]c3ccccc23)NC(=O)[C@H](CC(=O)O)NC(=O)[C@H](Cc2ccc(OCC(=O)O)cc2)NC(=O)[C@H](C(C)O)NC(=O)CSC[C@@H](C(=O)N[C@H](CO)C(=O)NCC(=O)N[C@@H](CO)C(N)=O)NC(=O)[C@H](CO)NC(=O)[C@H](C(C)C)NC(=O)C(CC2CCCCC2)NC(=O)[C@H](CCN)NC(=O)[C@@H](CC(C)C)NC(=O)[C@H](C)N(C)C1=O` (stereo partly drawn) [Example 5006] ({CH2CO}-[Thr(3ξ)]Y(Carboxymethyl)DWV[Bip][Ile(3ξ)][NMeA][dL][Dab][ξCha]VSC[dS]GS-NH2; thioether N-14), the IC50 was 0.02 µM.

Still in this experiment, the particulars now being: Jurkat-hPD-1 cells, PE-labeled PD-L1-Ig 20 nM final; read-out: Jurkat HPDL1 PD1 IC50 (uM) (Method 1).
For `CC(C)C[C@@H]1NC(=O)[C@H](CCCN)NC(=O)[C@@H](Cc2cccc3ccccc23)NC(=O)[C@H](C)N(C)C(=O)[C@H](CCCNC(=N)N)NC(=O)[C@H](Cc2ccc(-c3ccccc3)cc2)NC(=O)[C@H](C(C)C)NC(=O)[C@H](Cc2c[nH]c3ccccc23)NC(=O)[C@H](CC(=O)O)NC(=O)[C@H](Cc2ccc(O)cc2)NC(=O)[C@H](CC(N)=O)NC(=O)CSC[C@@H](C(=O)N[C@@H](C)C(N)=O)NC(=O)[C@H]([C@@H](C)O)NC(=O)[C@H](C(C)C)NC1=O` [Compound 1182] ({CH2CO}-NYDWV[Bip]R[NMeA][d1Nal][Orn]LVTCA-NH2; thioether N-14), the IC50 amounted to 0.3 µM.
As for `CC(C)C[C@@H]1NC(=O)[C@H](CCCNC(=N)N)NC(=O)[C@@H](Cc2ccc([N+](=O)[O-])cc2)NC(=O)[C@H](C)N(C)C(=O)[C@H](CCCNC(=N)N)NC(=O)[C@H](Cc2ccc(-c3ccccc3)cc2)NC(=O)[C@H](C(C)C)NC(=O)[C@H](Cc2c[nH]c3ccccc23)NC(=O)[C@H](CC(=O)O)NC(=O)[C@H](Cc2ccc(O)cc2)NC(=O)[C@H](Cc2ccccc2)NC(=O)CSC[C@@H](C(=O)N[C@@H](C)C(N)=O)NC(=O)[C@H]([C@@H](C)O)NC(=O)[C@H](C(C)C)NC1=O` [Compound 1102] ({CH2CO}-FYDWV[Bip]R[NMeA][dPhe(4-NO2)]RLVTCA-NH2; thioether N-14), the IC50 turned out to be 0.3 µM.
In the case of `CCCC[C@@H]1NC(=O)[C@H](CCCNC(=N)N)NC(=O)[C@@H](CC(C)C)NC(=O)[C@H](C)N(C)C(=O)[C@H]([C@@H](C)CC)NC(=O)[C@H](Cc2ccc(-c3ccccc3)cc2)NC(=O)[C@H](C(C)C)NC(=O)[C@H](Cc2c[nH]c3ccccc23)NC(=O)[C@H](CC(=O)O)NC(=O)[C@H](Cc2ccc(O)cc2)NC(=O)[C@H](CC(N)=O)NC(=O)CSC[C@@H](C(=O)N[C@@H](C)C(N)=O)NC(=O)[C@H]([C@@H](C)O)NC(=O)[C@H](C(C)C)NC1=O` [Compound 1498] ({CH2CO}-NYDWV[Bip]I[NMeA][dL]R[Nle]VTCA-NH2; thioether N-14), the IC50 came out at 0.12 µM.
Same read-out and setting: to `CC[C@H](C)[C@@H]1NC(=O)[C@H](Cc2ccc(-c3ccccc3)cc2)NC(=O)[C@H](C(C)C)NC(=O)[C@H](Cc2c[nH]c3ccccc23)NC(=O)[C@H](CC(=O)O)NC(=O)[C@H](Cc2ccc(OCC(=O)O)cc2)NC(=O)[C@H](Cc2ccc(OCC(=O)O)cc2)NC(=O)CSC[C@@H](C(=O)N[C@@H](C)C(N)=O)NC(=O)[C@H]([C@@H](C)O)NC(=O)[C@H](C(C)C)NC(=O)[C@H](CC(C)C)NC(=O)[C@H](CCN)NC(=O)[C@@H](CC(C)C)NC(=O)[C@H](C)N(C)C1=O` [Compound 1568] ({CH2CO}-Y(Carboxymethyl)Y(Carboxymethyl)DWV[Bip]I[NMeA][dL][Dab]LVTCA-NH2; thioether N-14) belongs 0.01 µM; to `CC[C@H](C)[C@@H]1NC(=O)[C@H](Cc2ccc(-c3ccccc3)cc2)NC(=O)[C@H](CC(C)C)NC(=O)[C@H](Cc2c[nH]c3ccccc23)NC(=O)[C@H](CC(=O)O)NC(=O)[C@H](Cc2ccc(O)cc2)NC(=O)[C@H](Cc2ccccc2)NC(=O)CSC[C@@H](C(=O)NCC(N)=O)NC(=O)[C@H](CO)NC(=O)[C@H](C(C)C)NC(=O)[C@H](CC(C)C)NC(=O)[C@H](CCN)NC(=O)[C@@H](CC(C)C)NC(=O)[C@H](C)N(C)C1=O` [Compound 1511] ({CH2CO}-FYDWL[Bip]I[NMeA][dL][Dab]LVSCG-NH2; thioether N-14), 0.01 µM; to `CCC(C)[C@@H]1NC(=O)[C@H](Cc2ccc(-c3ccccc3)cc2)NC(=O)[C@H](C(C)C)NC(=O)[C@H](Cc2c[nH]c3ccccc23)NC(=O)[C@H](CC(=O)O)NC(=O)[C@H](Cc2ccc(O)cc2)NC(=O)[C@H](Cc2ccncc2)NC(=O)CSC[C@@H](C(=O)N[C@@H](CN)C(=O)O)NC(=O)[C@H](C(C)O)NC(=O)[C@H](C(C)C)NC(=O)[C@H](CC2CCCCC2)NC(=O)[C@H](CC(N)=O)NC(=O)[C@@H](CC(C)C)NC(=O)[C@H](C)N(C)C1=O` (stereo partly drawn) [Compound 2210] ({CH2CO}-[4Pal]YDWV[Bip][Ile(3ξ)][NMeA][dL]N[Cha]V[Thr(3ξ)]C[Dap]-OH; thioether N-14), 0.02 µM.
On the same count and under the same terms, in the case of `CC(C)C[C@H]1NC(=O)[C@H](C)N(C)C(=O)[C@H](CCCNC(N)=O)NC(=O)[C@H](Cc2ccc(-c3ccccc3)cc2)NC(=O)[C@H](C(C)C)NC(=O)[C@H](Cc2c[nH]c3ccccc23)NC(=O)[C@H](CC(=O)O)NC(=O)[C@H](Cc2ccc(O)cc2)NC(=O)[C@H](Cc2ccccc2)NC(=O)CSC[C@@H](C(=O)N[C@@H](C)C(N)=O)NC(=O)[C@H]([C@@H](C)O)NC(=O)[C@H](C(C)C)NC(=O)[C@H](CC2CCCCC2)NC(=O)[C@H](CCCNC(=N)N)NC1=O` [Compound 1505] ({CH2CO}-FYDWV[Bip][Cit][NMeA][dL]R[Cha]VTCA-NH2; thioether N-14) it was 0.02 µM; in that of `CC(C)C[C@@H]1NC(=O)[C@H](CCN)NC(=O)[C@@H](CC(C)C)NC(=O)[C@H](C)N(C)C(=O)[C@H](CCCNC(=N)N)NC(=O)[C@H](Cc2ccc(-c3ccccc3)cc2)NC(=O)[C@H](C(C)C)NC(=O)[C@H](Cc2c[nH]c3ccccc23)NC(=O)[C@H](CC(=O)O)NC(=O)[C@H](Cc2ccc(O)c([N+](=O)[O-])c2)NC(=O)[C@H](Cc2ccccc2)NC(=O)CSC[C@@H](C(=O)N[C@@H](C)C(N)=O)NC(=O)[C@H]([C@@H](C)O)NC(=O)[C@H](C(C)C)NC1=O` [Compound 1145] ({CH2CO}-F[Tyr(3-NO2)]DWV[Bip]R[NMeA][dL][Dab]LVTCA-NH2; thioether N-14), 0.02 µM; in that of `CC(C)C[C@@H]1NC(=O)[C@H](CCO)NC(=O)[C@@H](CC(C)C)NC(=O)[C@H](C)N(C)C(=O)[C@H](CCCNC(N)=O)NC(=O)[C@H](Cc2ccc(-c3ccccc3)cc2)NC(=O)[C@H](C(C)C)NC(=O)[C@H](Cc2c[nH]c3ccccc23)NC(=O)[C@H](CC(=O)O)NC(=O)[C@H](Cc2ccc(O)cc2)NC(=O)[C@H](Cc2ccccc2)NC(=O)CSC[C@@H](C(=O)N[C@@H](C)C(N)=O)NC(=O)[C@H](C(C)O)NC(=O)[C@H](C(C)C)NC1=O` (stereo partly drawn) [Compound 2032] ({CH2CO}-FYDWV[Bip][Cit][NMeA][dL][hSer]LV[Thr(3ξ)]CA-NH2; thioether N-14), 0.05 µM.
Turning to `CC(C)C[C@@H]1NC(=O)[C@H](CCN)NC(=O)[C@@H](CC(C)C)NC(=O)[C@H](C)N(C)C(=O)[C@H](CCCNC(N)=O)NC(=O)[C@H](Cc2ccc(-c3ccccc3)cc2)NC(=O)[C@H](C(C)C)NC(=O)[C@H](Cc2c[nH]c3ccccc23)NC(=O)[C@H](CC(=O)O)NC(=O)[C@H](Cc2ccc(O)cc2)NC(=O)[C@H](C2CCN(C(=N)N)CC2)NC(=O)CSC[C@@H](C(=O)N[C@@H](C)C(N)=O)NC(=O)[C@H](C(C)O)NC(=O)[C@H](C(C)C)NC1=O` (stereo partly drawn) [Compound 2038] ({CH2CO}-[Gly(1-amidinopiperidin-4-yl)]YDWV[Bip][Cit][NMeA][dL][Dab]LV[Thr(3ξ)]CA-NH2; thioether N-14), the IC50 worked out at 0.07 µM.
